Test results: ChEMBL document CHEMBL3867472, “Discovery of benzofuran propanoic acid GPR120 agonists: From uHTS hit to mechanism-based pharmacodynamic effects” (Bioorg Med Chem Lett, 2016)
The source made the active and inactive calls. No cut-off for these calls is given here.

biological target: T1, Free fatty acid receptor 4 (Homo sapiens, UniProt Q5NUL3); assay: Agonist activity at human GPR120 expressed in CHOK1 cells measured after 60 mins by IP1-HTRF assay; type: functional, cell-based, CHO-K1; conditions: not given
T1 sequence (Q5NUL3 whole entry): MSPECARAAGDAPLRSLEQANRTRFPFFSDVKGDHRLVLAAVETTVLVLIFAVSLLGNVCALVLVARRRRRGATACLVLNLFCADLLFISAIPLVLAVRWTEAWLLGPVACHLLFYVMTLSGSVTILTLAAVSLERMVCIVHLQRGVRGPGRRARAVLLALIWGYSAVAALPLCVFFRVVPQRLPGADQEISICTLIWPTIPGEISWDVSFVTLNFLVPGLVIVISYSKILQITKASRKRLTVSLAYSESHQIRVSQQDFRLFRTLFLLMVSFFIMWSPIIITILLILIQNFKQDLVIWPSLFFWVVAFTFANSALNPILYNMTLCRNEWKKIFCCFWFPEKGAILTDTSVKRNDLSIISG

SMILES | EC50 [µM]
COc1cccc(Oc2cccc(-c3ccc(OCCCC(=O)O)cc3)c2)c1 | 0.498
O=C(O)CCCOc1ccc(-c2cc(OC(F)(F)F)ccc2F)cc1 | 0.946
O=C(O)CCCOc1ccc(-c2cc(OC(F)(F)F)ccc2Cl)cc1 | 0.057
O=C(O)CCc1cc2cc(-c3cc(OC(F)(F)F)ccc3F)ccc2o1 | 0.063
Cc1cc(-c2cc(OC(F)(F)F)ccc2F)ccc1OCCCC(=O)O | 0.308

biological target: T2, Free fatty acid receptor 4 (Homo sapiens) (UniProt Q5NUL3); assay: Agonist activity at human GPR120 expressed in CHOK1 cells measured after 60 mins by IP1-HTRF assay relative to basal level; type: functional, cell-based; set-up: concentration or dose not given beside the values; conditions: CHO-K1
T2 sequence (whole entry): T1 sequence (Q5NUL3 whole entry)

SMILES | Activity [%]
COc1cccc(Oc2cccc(-c3ccc(OCCCC(=O)O)cc3)c2)c1 | 19
O=C(O)CCCOc1ccc(-c2cc(OC(F)(F)F)ccc2F)cc1 | 16
O=C(O)CCCOc1ccc(-c2cc(OC(F)(F)F)ccc2Cl)cc1 | 71
O=C(O)CCc1cc2cc(-c3cc(OC(F)(F)F)ccc3F)ccc2o1 | 73
Cc1cc(-c2cc(OC(F)(F)F)ccc2F)ccc1OCCCC(=O)O | 52

biological target: T3, Free fatty acid receptor 4 (Mus musculus, UniProt Q7TMA4); assay: Agonist activity at mouse GPR120 expressed in CHOK1 cells measured after 60 mins by IP1-HTRF assay; type: functional, cell-based, CHO-K1; conditions: not given
T3 sequence (Q7TMA4 whole entry): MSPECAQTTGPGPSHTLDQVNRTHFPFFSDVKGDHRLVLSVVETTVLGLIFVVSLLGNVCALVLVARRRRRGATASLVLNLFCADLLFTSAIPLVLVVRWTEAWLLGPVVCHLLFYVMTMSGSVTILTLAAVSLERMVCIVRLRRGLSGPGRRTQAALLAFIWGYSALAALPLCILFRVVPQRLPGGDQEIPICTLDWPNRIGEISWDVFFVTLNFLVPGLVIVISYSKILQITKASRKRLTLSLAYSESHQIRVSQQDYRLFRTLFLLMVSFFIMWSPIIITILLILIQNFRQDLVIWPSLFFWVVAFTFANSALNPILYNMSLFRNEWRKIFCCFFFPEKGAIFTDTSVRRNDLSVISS

SMILES | EC50 [µM]
COc1cccc(Oc2cccc(-c3ccc(OCCCC(=O)O)cc3)c2)c1 | 0.264
O=C(O)CCCOc1ccc(-c2cc(OC(F)(F)F)ccc2F)cc1 | 0.432
O=C(O)CCCOc1ccc(-c2cc(OC(F)(F)F)ccc2Cl)cc1 | 0.009
O=C(O)CCc1cc2cc(-c3cc(OC(F)(F)F)ccc3F)ccc2o1 | 0.043
Cc1cc(-c2cc(OC(F)(F)F)ccc2F)ccc1OCCCC(=O)O | 0.079

biological target: T4, Free fatty acid receptor 4 (Mus musculus) (UniProt Q7TMA4); assay: Agonist activity at mouse GPR120 expressed in CHOK1 cells measured after 60 mins by IP1-HTRF assay relative to basal level; type: functional, cell-based; set-up: concentration or dose not given beside the values; conditions: CHO-K1
T4 sequence (whole entry): T3 sequence (Q7TMA4 whole entry)

SMILES | Activity [%]
COc1cccc(Oc2cccc(-c3ccc(OCCCC(=O)O)cc3)c2)c1 | 20
O=C(O)CCCOc1ccc(-c2cc(OC(F)(F)F)ccc2F)cc1 | 34
O=C(O)CCCOc1ccc(-c2cc(OC(F)(F)F)ccc2Cl)cc1 | 64
O=C(O)CCc1cc2cc(-c3cc(OC(F)(F)F)ccc3F)ccc2o1 | 75
Cc1cc(-c2cc(OC(F)(F)F)ccc2F)ccc1OCCCC(=O)O | 37

biological target: T5, Free fatty acid receptor 1 (Homo sapiens, UniProt O14842); assay: Agonist activity at human GPR40 measured after 60 mins by IP1-HTRF assay; type: functional; conditions: not given
T5 sequence (O14842 whole entry): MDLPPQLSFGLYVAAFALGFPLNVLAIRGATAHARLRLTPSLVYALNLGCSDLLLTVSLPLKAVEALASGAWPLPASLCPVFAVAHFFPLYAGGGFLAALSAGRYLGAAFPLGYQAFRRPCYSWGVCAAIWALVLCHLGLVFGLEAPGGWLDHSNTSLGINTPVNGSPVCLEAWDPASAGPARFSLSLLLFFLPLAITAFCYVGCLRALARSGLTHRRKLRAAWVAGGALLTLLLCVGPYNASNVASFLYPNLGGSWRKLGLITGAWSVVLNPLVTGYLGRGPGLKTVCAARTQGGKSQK

SMILES | EC50 [µM]
COc1cccc(Oc2cccc(-c3ccc(OCCCC(=O)O)cc3)c2)c1 | 6.31
O=C(O)CCCOc1ccc(-c2cc(OC(F)(F)F)ccc2F)cc1 | 4.22
O=C(O)CCCOc1ccc(-c2cc(OC(F)(F)F)ccc2Cl)cc1 | 1.04
O=C(O)CCc1cc2cc(-c3cc(OC(F)(F)F)ccc3F)ccc2o1 | 1.83
Cc1cc(-c2cc(OC(F)(F)F)ccc2F)ccc1OCCCC(=O)O | 9.26

biological target: T5, Free fatty acid receptor 1; assay: Agonist activity at human GPR40 measured after 60 mins by IP1-HTRF assay relative to basal level; type: functional; set-up: concentration or dose not given beside the values; conditions: not given

SMILES | Activity [%]
COc1cccc(Oc2cccc(-c3ccc(OCCCC(=O)O)cc3)c2)c1 | 101
O=C(O)CCCOc1ccc(-c2cc(OC(F)(F)F)ccc2F)cc1 | 91
O=C(O)CCCOc1ccc(-c2cc(OC(F)(F)F)ccc2Cl)cc1 | 40
O=C(O)CCc1cc2cc(-c3cc(OC(F)(F)F)ccc3F)ccc2o1 | 38
Cc1cc(-c2cc(OC(F)(F)F)ccc2F)ccc1OCCCC(=O)O | 34

biological target: Voltage-dependent L-type calcium channel subunit alpha-1C (Homo sapiens, UniProt Q13936); assay: Inhibition of Cav1.2 (unknown origin); conditions: not given
Sequence (Q13936 whole entry): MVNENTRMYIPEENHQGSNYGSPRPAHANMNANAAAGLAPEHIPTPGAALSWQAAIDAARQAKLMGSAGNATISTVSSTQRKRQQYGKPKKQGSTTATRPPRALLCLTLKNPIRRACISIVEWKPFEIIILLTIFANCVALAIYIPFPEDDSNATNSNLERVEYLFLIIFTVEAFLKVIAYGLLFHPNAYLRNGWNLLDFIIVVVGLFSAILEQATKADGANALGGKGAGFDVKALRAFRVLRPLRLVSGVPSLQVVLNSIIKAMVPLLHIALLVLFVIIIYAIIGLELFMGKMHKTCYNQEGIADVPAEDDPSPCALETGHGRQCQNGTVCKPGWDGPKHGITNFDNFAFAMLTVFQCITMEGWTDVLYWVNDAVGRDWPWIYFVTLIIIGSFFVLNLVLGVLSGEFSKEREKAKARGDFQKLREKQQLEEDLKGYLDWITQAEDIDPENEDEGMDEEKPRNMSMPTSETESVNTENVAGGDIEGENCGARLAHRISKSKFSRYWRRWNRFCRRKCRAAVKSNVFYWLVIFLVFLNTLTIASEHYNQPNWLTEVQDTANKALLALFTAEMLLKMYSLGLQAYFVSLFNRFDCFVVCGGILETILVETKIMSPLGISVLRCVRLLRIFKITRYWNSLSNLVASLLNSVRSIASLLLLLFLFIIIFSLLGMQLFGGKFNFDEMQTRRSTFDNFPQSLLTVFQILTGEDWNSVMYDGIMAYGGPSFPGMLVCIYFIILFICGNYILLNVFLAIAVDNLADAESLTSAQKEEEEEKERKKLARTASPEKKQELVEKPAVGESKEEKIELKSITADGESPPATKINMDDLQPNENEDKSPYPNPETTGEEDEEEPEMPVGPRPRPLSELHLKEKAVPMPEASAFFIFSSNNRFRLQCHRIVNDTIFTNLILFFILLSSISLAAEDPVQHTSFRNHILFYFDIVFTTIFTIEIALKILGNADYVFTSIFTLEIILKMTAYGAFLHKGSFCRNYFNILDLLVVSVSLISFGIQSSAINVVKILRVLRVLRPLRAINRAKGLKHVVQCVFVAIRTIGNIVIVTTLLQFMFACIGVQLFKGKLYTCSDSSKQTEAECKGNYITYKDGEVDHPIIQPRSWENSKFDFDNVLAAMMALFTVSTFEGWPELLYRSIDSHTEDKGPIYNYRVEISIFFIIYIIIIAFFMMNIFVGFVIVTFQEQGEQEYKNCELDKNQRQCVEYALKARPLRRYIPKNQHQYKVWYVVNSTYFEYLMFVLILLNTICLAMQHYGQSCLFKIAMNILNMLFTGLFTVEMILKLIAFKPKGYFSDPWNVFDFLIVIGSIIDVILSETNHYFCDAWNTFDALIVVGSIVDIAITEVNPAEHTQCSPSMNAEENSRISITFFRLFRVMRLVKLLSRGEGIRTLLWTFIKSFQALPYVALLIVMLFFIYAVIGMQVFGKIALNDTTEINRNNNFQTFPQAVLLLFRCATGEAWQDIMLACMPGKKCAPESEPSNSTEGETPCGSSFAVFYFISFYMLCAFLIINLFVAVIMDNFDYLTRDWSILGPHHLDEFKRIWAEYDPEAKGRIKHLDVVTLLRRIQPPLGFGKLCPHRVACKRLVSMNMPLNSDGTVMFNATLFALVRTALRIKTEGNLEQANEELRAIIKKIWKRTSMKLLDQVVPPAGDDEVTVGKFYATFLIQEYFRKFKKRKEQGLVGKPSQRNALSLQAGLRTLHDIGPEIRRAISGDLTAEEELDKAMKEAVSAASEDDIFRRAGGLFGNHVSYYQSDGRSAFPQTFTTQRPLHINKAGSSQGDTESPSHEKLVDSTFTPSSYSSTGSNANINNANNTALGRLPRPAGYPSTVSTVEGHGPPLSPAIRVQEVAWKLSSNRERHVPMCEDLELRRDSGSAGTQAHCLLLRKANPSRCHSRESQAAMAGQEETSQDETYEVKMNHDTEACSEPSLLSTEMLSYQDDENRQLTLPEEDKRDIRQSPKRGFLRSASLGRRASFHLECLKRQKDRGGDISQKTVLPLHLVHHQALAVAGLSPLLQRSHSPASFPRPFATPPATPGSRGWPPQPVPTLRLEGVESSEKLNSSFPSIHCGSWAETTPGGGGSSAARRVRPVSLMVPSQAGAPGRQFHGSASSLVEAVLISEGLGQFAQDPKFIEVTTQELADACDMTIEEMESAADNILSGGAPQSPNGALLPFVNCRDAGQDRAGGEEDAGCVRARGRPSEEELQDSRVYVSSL

SMILES | IC50 [µM]
O=C(O)CCCOc1ccc(-c2cc(OC(F)(F)F)ccc2Cl)cc1 | > 30
O=C(O)CCc1cc2cc(-c3cc(OC(F)(F)F)ccc3F)ccc2o1 | 15.1

biological target: Sodium channel protein type 5 subunit alpha (Homo sapiens, UniProt Q14524); assay: Inhibition of Nav1.5 (unknown origin); conditions: not given
Sequence (Q14524 whole entry): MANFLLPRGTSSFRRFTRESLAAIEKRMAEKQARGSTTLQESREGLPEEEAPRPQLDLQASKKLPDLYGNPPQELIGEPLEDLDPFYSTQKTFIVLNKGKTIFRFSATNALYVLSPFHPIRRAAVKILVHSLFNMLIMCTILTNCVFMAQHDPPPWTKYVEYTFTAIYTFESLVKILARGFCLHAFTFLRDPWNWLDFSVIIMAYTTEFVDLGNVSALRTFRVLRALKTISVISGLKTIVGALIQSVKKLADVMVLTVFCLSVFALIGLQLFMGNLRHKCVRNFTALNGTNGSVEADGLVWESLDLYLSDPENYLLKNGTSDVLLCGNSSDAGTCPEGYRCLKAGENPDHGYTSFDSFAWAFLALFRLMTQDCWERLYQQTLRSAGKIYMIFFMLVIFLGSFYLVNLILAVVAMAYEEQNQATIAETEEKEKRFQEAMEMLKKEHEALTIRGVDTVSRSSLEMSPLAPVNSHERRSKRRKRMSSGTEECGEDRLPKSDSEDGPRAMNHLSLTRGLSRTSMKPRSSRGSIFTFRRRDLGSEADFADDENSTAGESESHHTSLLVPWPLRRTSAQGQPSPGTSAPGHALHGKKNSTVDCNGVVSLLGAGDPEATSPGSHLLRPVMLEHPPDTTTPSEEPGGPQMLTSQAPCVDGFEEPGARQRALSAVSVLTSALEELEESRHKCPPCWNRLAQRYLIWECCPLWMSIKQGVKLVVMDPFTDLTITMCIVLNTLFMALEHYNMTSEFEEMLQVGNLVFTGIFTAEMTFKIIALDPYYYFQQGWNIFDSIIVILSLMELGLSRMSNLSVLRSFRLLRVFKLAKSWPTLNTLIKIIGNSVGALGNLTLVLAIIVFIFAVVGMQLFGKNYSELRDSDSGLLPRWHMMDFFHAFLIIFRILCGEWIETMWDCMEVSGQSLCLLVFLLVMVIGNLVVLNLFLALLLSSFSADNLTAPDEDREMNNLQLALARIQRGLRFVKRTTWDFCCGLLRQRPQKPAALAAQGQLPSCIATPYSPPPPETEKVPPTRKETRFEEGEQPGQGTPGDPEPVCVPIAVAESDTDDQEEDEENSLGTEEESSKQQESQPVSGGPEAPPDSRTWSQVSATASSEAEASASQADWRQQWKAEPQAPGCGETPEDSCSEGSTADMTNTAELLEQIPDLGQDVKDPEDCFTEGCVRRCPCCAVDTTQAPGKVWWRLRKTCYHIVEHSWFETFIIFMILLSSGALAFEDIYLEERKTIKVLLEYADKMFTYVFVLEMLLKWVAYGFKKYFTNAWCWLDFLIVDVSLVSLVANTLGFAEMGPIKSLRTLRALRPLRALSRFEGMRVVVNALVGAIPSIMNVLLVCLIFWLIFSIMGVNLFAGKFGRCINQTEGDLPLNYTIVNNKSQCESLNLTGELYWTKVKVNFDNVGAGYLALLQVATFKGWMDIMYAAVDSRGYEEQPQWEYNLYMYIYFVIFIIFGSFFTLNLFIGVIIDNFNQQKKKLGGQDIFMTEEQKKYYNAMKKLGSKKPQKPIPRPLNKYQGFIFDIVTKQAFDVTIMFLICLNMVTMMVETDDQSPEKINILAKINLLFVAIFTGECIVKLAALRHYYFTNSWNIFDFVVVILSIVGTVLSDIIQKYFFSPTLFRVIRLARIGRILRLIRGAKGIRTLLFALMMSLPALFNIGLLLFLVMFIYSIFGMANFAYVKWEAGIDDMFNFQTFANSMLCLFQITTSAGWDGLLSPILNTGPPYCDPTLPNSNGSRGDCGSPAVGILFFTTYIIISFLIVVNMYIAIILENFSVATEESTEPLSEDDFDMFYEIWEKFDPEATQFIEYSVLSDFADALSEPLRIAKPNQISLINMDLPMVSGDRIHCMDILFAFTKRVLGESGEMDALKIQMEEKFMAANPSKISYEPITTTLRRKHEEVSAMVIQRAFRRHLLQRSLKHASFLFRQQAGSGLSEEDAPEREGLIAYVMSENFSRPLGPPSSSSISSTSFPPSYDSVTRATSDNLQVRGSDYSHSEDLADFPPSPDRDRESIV

SMILES | IC50 [µM]
O=C(O)CCCOc1ccc(-c2cc(OC(F)(F)F)ccc2Cl)cc1 | 17.4
O=C(O)CCc1cc2cc(-c3cc(OC(F)(F)F)ccc3F)ccc2o1 | > 30

biological target: Cytochrome P450 3A4 (Homo sapiens, UniProt P08684); assay: Inhibition of CYP3A4 (unknown origin); type: ADME; conditions: not given
Sequence (P08684 whole entry): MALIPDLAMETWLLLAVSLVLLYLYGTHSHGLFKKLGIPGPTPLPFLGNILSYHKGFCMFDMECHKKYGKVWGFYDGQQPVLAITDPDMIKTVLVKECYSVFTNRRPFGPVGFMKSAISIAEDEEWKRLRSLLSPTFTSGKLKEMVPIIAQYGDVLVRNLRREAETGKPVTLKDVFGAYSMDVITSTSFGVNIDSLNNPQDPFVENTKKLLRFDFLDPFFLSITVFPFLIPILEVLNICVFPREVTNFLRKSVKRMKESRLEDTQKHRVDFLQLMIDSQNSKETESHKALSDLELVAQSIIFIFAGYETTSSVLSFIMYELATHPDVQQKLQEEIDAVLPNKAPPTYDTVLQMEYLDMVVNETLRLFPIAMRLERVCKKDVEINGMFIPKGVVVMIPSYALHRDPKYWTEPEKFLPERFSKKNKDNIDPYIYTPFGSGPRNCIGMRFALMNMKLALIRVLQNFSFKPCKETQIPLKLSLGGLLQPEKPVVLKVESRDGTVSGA

SMILES | IC50 [µM]
O=C(O)CCCOc1ccc(-c2cc(OC(F)(F)F)ccc2Cl)cc1 | > 50
O=C(O)CCc1cc2cc(-c3cc(OC(F)(F)F)ccc3F)ccc2o1 | > 50

biological target: Cytochrome P450 2D6 (Homo sapiens, UniProt P10635); assay: Inhibition of CYP2D6 (unknown origin); type: ADME; conditions: not given

SMILES | IC50 [µM]
O=C(O)CCCOc1ccc(-c2cc(OC(F)(F)F)ccc2Cl)cc1 | > 50
O=C(O)CCc1cc2cc(-c3cc(OC(F)(F)F)ccc3F)ccc2o1 | > 50

biological target: Cytochrome P450 2C9 (Homo sapiens, UniProt P11712); assay: Inhibition of CYP2C9 (unknown origin); type: ADME; conditions: not given

SMILES | IC50 [µM]
O=C(O)CCCOc1ccc(-c2cc(OC(F)(F)F)ccc2Cl)cc1 | 33
O=C(O)CCc1cc2cc(-c3cc(OC(F)(F)F)ccc3F)ccc2o1 | 38.3

test system: not listed separately; assay: Clearance in mouse at 2 mg/kg, iv or 10 mg/kg, po; type: ADME, organism-based; conditions: in vivo

SMILES | clearance [mL/min/kg]
O=C(O)CCCOc1ccc(-c2cc(OC(F)(F)F)ccc2Cl)cc1 | 17
O=C(O)CCc1cc2cc(-c3cc(OC(F)(F)F)ccc3F)ccc2o1 | 20

test system: not listed separately; assay: Volume of distribution in mouse at 2 mg/kg, iv or 10 mg/kg, po; type: ADME, organism-based; conditions: in vivo

SMILES | Vd [L/kg]
O=C(O)CCCOc1ccc(-c2cc(OC(F)(F)F)ccc2Cl)cc1 | 1.86
O=C(O)CCc1cc2cc(-c3cc(OC(F)(F)F)ccc3F)ccc2o1 | 3

test system: not listed separately; assay: Half life in mouse at 2 mg/kg, iv or 10 mg/kg, po; type: ADME, organism-based; conditions: in vivo

SMILES | half-life [h]
O=C(O)CCCOc1ccc(-c2cc(OC(F)(F)F)ccc2Cl)cc1 | 1.3
O=C(O)CCc1cc2cc(-c3cc(OC(F)(F)F)ccc3F)ccc2o1 | 1.6

test system: not listed separately; assay: Oral bioavailability in mouse at 10 mg/kg; type: ADME, organism-based; conditions: in vivo

SMILES | bioavailability [%]
O=C(O)CCCOc1ccc(-c2cc(OC(F)(F)F)ccc2Cl)cc1 | 45
O=C(O)CCc1cc2cc(-c3cc(OC(F)(F)F)ccc3F)ccc2o1 | 100

test system: not listed separately; assay: Cmax in mouse at 2 mg/kg, iv or 10 mg/kg, po; type: ADME, organism-based; conditions: in vivo

SMILES | Cmax [µM]
O=C(O)CCCOc1ccc(-c2cc(OC(F)(F)F)ccc2Cl)cc1 | 2.38
O=C(O)CCc1cc2cc(-c3cc(OC(F)(F)F)ccc3F)ccc2o1 | 8.17

test system: not listed separately; assay: Protein binding in mouse plasma; type: ADME, cell-free; conditions: read-out: PPB (converted)

SMILES | fraction unbound
O=C(O)CCCOc1ccc(-c2cc(OC(F)(F)F)ccc2Cl)cc1 | 0.049
O=C(O)CCc1cc2cc(-c3cc(OC(F)(F)F)ccc3F)ccc2o1 | 0.002

test system: not listed separately; assay: Antidiabetic activity in wild-type mouse assessed as reduction in glucose excursion at 30 and 100 mg/kg, po by oral glucose tolerance test; type: functional, organism-based; conditions: not given

SMILES | Activity
O=C(O)CCc1cc2cc(-c3cc(OC(F)(F)F)ccc3F)ccc2o1 | Active

test system: Mus musculus; assay: Reduction of glucose excursion in GPR120 knockout mouse at 30 and 100 mg/kg, po by oral glucose tolerance test; type: functional, organism-based; conditions: not given

SMILES | Activity
O=C(O)CCc1cc2cc(-c3cc(OC(F)(F)F)ccc3F)ccc2o1 | Active

test system: not listed separately; assay: Drug uptake in GPR120 knockout mouse blood at 30 mg/kg, po; type: ADME, organism-based; conditions: in vivo, read-out: Drug uptake

SMILES | concentration [µM]
O=C(O)CCc1cc2cc(-c3cc(OC(F)(F)F)ccc3F)ccc2o1 | 24.8

test system: not listed separately; assay: Drug uptake in GPR120 knockout mouse blood at 100 mg/kg, po; type: ADME, organism-based; conditions: in vivo, read-out: Drug uptake

SMILES | concentration [µM]
O=C(O)CCc1cc2cc(-c3cc(OC(F)(F)F)ccc3F)ccc2o1 | 23

test system: not listed separately; assay: Drug uptake in wild-type mouse blood at 30 mg/kg, po; type: ADME, organism-based; conditions: in vivo, read-out: Drug uptake

SMILES | concentration [µM]
O=C(O)CCc1cc2cc(-c3cc(OC(F)(F)F)ccc3F)ccc2o1 | 33.4

test system: not listed separately; assay: Drug uptake in wild-type mouse blood at 100 mg/kg, po; type: ADME, organism-based; conditions: in vivo, read-out: Drug uptake

SMILES | concentration [µM]
O=C(O)CCc1cc2cc(-c3cc(OC(F)(F)F)ccc3F)ccc2o1 | 45.1

test system: Mus musculus; assay: In vivo agonist activity at GPR120 in wild-type mouse assessed as target engagement at 30 mg/kg, po; type: functional; conditions: not given

SMILES | Activity [%]
O=C(O)CCc1cc2cc(-c3cc(OC(F)(F)F)ccc3F)ccc2o1 | 40

test system: Mus musculus; assay: In vivo agonist activity at GPR120 in wild-type mouse assessed as target engagement at 100 mg/kg, po; type: functional; conditions: not given

SMILES | Activity [%]
O=C(O)CCc1cc2cc(-c3cc(OC(F)(F)F)ccc3F)ccc2o1 | 68

biological target: Voltage-gated inwardly rectifying potassium channel KCNH2 (Homo sapiens, UniProt Q12809); conditions: not given

SMILES | IC50 [µM]
O=C(O)CCCOc1ccc(-c2cc(OC(F)(F)F)ccc2Cl)cc1 | > 60
